Reference: patent US9273052B2, “Phthalazinone ketone derivative, preparation method thereof, and pharmaceutical use thereof” (Jiangsu Hansoh Pharmaceutical Co., Ltd., priority 2010, dated 2016)

Tests used:
[1] = system: MDA-MB-436 cells; experiment: Cell proliferation inhibition assay (CCK8); assay type: cell-based; details: Homo sapiens, 72 hours
[2] = Pharmacokinetics assay in SD rats (LC/MS/MS plasma concentration); assay type: in vivo; details: oral gavage, 15 mg/kg
Description: The pharmacokinetic behavior of the compounds of the present invention was studied and evaluated in rats.
24 Healthy adult SD rats, male and female in half, were purchased from SINO-BRITSH SIPPR/BK LAB. ANIMAL LTD., CO, Certificate No.: SCXK (Shanghai) 2003-0002.
The intragastrical administration group: the right amount of tested compounds were weighed and dissolved in 0.5 mL of DMSO, diluted with physiological saline to 10 mL and prepared to 1.5 mg/mL.
The intravenous injection administration group: the right amount of tested compounds were weighed and added into […].
After an overnight fast, 24 healthy adult SD rats, male and female in half, were administered intragastrically at a dose of 15.0 mg/kg and an administration volume of 10 mL/kg.
The intragastrical administration group: blood samples (0.2 mL) were taken from orbital sinus at pre administration and at 0.25 hour, 0.5 hour, 1.0 hour, 1.5 hours, 2.0 hours, 3.0 hours, 4.0 hours, 6.0 hours, 7.0 hours, 9.0 hours, 12.0 hours and 24.0 hours post administration, stored in heparinized tubes and centrifuged for 20 minutes at 3,500 rpm to separate plasma. The plasma samples were stored at −20° C. The rats were fed at 2 hours after administration.
The intravenous injection administration group: blood samples (0.2 mL) were taken from orbital sinus at pre administration and at 2 minutes, 15 minutes, 0.5 hour, 1.0 hour, 2.0 hours, 3.0 hours, 4.0 hours, 6.0 hours, 8.0 hours, 12.0 hours and 24.0 hours post administration, stored in heparinized tubes and centrifuged for 20 minutes at 3,500 rpm to separate plasma. The plasma samples were stored at −20° C.
20 μL of rat blank plasmas taken at various time points after administration were added with 50 μL of internal standard solution and 140 μL of methanol and mixed for 3 minutes by a vortexer. The mixture was centrifuged for 10 minutes at 13,500 rpm. 20 μL of the supernatant was analyzed by LC-MS/MS. The main pharmacokinetic parameters were calculated by software DAS 2.0.

[3] = system: human colon carcinoma SW620; experiment: Antitumor effect with temozolomide on SW620 transplanted tumors in nude mice; assay type: in vivo; details: colon carcinoma SW620 in BALB/cA-nude mice; 10 mg/kg oral gavage + TMZ 50 mg/kg oral gavage; day 52
Description: The therapeutic effect of the compounds of the present invention administered in combination with temozolomide (TMZ) on transplanted tumors of human colon carcinoma SW620 or human breast cancer cells MX-1 in nude mice was evaluated by using BALB/cA-nude mice as test animals.
BALB/cA-nude mice, SPF, 16-20 g, female( ), were purchased from SINO-BRITSH SIPPR/BK LAB. ANIMAL LTD., CO. Certificate No.: SCXK(Shanghai) 2008-0016.
4.2 The right rib of the nude mice was subcutaneously inoculated with colon carcinoma cells SW620. After tumors grew to 339±132 mm^3, mice were randomly divided into teams (d0).
The volume of tumors and the weight of the mice were measured and recorded for 2 to 3 times per week.
The volume of tumor (V) was calculated by the follow equation: V=½×a×b^2 wherein: a, b represents length and width respectively. The antitumor rate(%)=(C−T)/C(%) wherein: T, C represents the tumor volume of the experimental group (tested compounds) and blank control group at the end of the experiment respectively. 5. Dosage, Dosage Regimens and the Results

[4] = system: human breast cancer cells MX-1; experiment: Antitumor effect with temozolomide on MX-1 transplanted tumors in nude mice; assay type: in vivo; details: breast cancer MX-1 in BALB/cA-nude mice, day 8
Description: The therapeutic effect of the compounds of the present invention administered in combination with temozolomide (TMZ) on transplanted tumors of human colon carcinoma SW620 or human breast cancer cells MX-1 in nude mice was evaluated by using BALB/cA-nude mice as test animals. BALB/cA-nude mice, SPF, 16-20 g, female( ), were purchased from SINO-BRITSH SIPPR/BK LAB. ANIMAL LTD., CO. Certificate No.: SCXK(Shanghai) 2008-0016. Nude mice were subcutaneously inoculated with human breast cancer cells MX-1. After tumors grew to 100 to 200 mm^3, mice were randomly divided into teams (d0). The volume of tumors and the weight of the mice were measured and recorded for 2 to 3 times per week. The volume of tumor (V) was calculated by the follow equation: V=½×a×b^2 wherein: a, b represents length and width respectively. The antitumor rate(%)=(C−T)/C(%) wherein: T, C represents the tumor volume of the experimental group (tested compounds) and blank control group at the end of the experiment respectively. 5. Dosage, Dosage Regimens and the Results

Compound: O=C(c1cc(Cc2n[nH]c(=O)c3ccccc23)ccc1F)N1CCn2nc(C(F)(F)F)nc2C1 [Example 19, 4-[[4-fluoro-3-[2-(trifluoromethyl)-6,8-dihydro-5H-[1,2,4]triazolo[1,5-a]pyrazine-7-carbonyl]phenyl]methyl]-2H-phthalazin-1-one]
- IC50 [1]: 49 nM
- AUC ([2]; both sexes, rat, plasma, read-out: Area Under Curve AUC): 12600 ± 12400 ng·h/mL
- half-life ([2]; both sexes, rat, plasma, read-out: Half-Life t1/2 (converted)): 9.79 ± 4.82 h
- MRT ([2]; both sexes, rat, plasma, read-out: Mean Residence Time MRT): 3.5 ± 1.46 h
- Cmax ([2]; both sexes, rat, plasma, read-out: Plasma Conc. Cmax): 2340 ± 1650 ng/mL
- Apparent Distribution Volume Vz/F [2]: 7.97 ± 5.38 kg⁻¹
- Clearance CL/F [2]: 3.45 ± 3.21 1/11/kg
- antitumor rate (%) [3]: ++ (“++”: 60%~80%)
- antitumor rate (%) ([4]; 1 mg/kg oral gavage + TMZ 50 mg/kg oral gavage): +++ (“+++”: 80%~100%)
- antitumor rate (%) ([4]; 3 mg/kg oral gavage + TMZ 50 mg/kg oral gavage): +++ (“+++”: 80%~100%)
- antitumor rate (%) ([4]; 10 mg/kg oral gavage + TMZ 50 mg/kg oral gavage): +++ (“+++”: 80%~100%)
